Results reported in patent publication US9452986B2, “6-heteroaryloxy- or 6-aryloxy-quinoline-2-carboxamides and method of use” (AbbVie Inc., priority 2014, dated 2016).

biological target: recombinant human Nav1.7 (Homo sapiens (Human), UniProt Q15858); test: FRET-based membrane potential assay, recombinant human sodium channel Nav1.7; format: cell-based; settings: HEK293 cells stably expressing recombinant human Nav1.7; veratridine + scorpion venom depolarization; read-out: FRET-Membrane Potential Nav1.7 IC50
Sequence (Q15858 whole entry): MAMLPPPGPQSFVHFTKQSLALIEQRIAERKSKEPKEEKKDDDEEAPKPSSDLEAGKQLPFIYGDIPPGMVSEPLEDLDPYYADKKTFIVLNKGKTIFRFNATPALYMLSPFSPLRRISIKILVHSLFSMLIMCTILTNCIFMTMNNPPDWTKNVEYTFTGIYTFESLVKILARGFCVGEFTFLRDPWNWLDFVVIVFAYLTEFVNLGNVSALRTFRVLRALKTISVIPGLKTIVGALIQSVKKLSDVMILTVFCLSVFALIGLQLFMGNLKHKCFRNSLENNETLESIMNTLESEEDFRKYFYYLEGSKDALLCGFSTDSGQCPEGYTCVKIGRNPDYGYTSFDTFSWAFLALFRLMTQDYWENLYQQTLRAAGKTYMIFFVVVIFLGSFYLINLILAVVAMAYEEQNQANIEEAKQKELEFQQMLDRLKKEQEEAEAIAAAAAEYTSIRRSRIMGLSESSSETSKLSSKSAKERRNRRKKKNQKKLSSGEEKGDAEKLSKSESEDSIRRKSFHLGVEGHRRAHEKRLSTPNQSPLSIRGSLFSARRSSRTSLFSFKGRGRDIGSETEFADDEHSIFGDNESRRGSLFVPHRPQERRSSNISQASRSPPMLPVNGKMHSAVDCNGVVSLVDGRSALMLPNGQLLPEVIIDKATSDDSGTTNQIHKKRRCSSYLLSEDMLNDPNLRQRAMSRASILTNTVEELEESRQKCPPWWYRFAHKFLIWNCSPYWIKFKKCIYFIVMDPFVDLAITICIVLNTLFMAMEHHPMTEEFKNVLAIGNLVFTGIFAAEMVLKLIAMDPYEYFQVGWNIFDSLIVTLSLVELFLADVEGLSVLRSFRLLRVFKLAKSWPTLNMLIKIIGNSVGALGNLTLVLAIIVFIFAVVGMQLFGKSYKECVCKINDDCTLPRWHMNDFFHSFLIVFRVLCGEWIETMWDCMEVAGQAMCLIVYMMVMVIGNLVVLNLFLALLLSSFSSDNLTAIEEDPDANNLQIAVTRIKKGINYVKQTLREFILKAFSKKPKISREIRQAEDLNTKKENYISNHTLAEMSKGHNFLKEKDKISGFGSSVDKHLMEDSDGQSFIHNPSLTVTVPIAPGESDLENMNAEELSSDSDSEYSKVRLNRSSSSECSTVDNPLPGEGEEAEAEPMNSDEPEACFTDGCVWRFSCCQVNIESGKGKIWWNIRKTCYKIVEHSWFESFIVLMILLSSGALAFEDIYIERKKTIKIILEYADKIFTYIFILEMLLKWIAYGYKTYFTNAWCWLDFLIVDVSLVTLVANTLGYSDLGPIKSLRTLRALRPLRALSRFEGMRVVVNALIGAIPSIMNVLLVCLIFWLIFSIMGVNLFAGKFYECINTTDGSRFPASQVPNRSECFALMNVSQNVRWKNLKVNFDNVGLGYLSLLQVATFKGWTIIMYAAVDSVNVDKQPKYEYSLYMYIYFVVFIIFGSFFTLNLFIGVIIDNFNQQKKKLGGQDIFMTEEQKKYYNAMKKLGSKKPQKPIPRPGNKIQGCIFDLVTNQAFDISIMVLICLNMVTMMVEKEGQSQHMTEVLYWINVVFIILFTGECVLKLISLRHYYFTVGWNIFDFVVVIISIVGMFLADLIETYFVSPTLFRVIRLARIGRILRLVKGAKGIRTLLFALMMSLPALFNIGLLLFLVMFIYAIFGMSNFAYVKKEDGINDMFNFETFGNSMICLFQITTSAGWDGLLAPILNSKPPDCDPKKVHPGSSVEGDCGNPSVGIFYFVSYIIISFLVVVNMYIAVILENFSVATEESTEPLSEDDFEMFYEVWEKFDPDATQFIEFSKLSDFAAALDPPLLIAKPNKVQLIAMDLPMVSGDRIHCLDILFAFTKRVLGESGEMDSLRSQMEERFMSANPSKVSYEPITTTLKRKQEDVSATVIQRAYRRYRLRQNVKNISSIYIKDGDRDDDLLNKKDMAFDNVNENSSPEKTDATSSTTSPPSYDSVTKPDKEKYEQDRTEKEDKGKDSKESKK
In short: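 Channel activation used veratridine at its EC80, set by a dilution curve each experiment, together with Leiurus scorpion venom, added 3 min after compound. Membrane-potential ratio signals from FLIPR Tetra in HEPES-buffered HBSS were fitted to a four-parameter Hill equation for percent inhibition and IC50.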

Structure (SMILES) | IC50 [µM]
NCCNC(=O)c1ccc2cc(Oc3ccc(C(F)(F)F)cn3)ccc2n1 [Example 338, N-(2-aminoethyl)-6-{[5-(trifluoromethyl)pyridin-2-yl]oxy}quinoline-2-carboxamide] | 0.984
O=C(c1ccc2cc(Oc3ccc(C(F)(F)F)cn3)ccc2n1)N1CCOC(CO)C1 (centres unmarked) [Example 339, [2-(hydroxymethyl)morpholin-4-yl](6-{[5-(trifluoromethyl)pyridin-2-yl]oxy}quinolin-2-yl)methanone] | 14.4
O=C(c1ccc2cc(Oc3ccc(C(F)(F)F)cn3)ccc2n1)N1CCOC(CF)C1 (centres unmarked) [Example 340, [2-(fluoromethyl)morpholin-4-yl](6-{[5-(trifluoromethyl)pyridin-2-yl]oxy}quinolin-2-yl)methanone] | 2.9
O=C(c1ccc2cc(Oc3ccc(C(F)(F)F)cn3)ccc2n1)N1CCC2(CCC2O)CC1 (centres unmarked) [Example 341, (1-hydroxy-7-azaspiro[3.5]non-7-yl)(6-{[5-(trifluoromethyl)pyridin-2-yl]oxy}quinolin-2-yl)methanone] | 4.23
O=C(c1ccc2cc(Oc3ccc(C(F)(F)F)cn3)ccc2n1)N1CCc2nc[nH]c(=O)c2C1 [Example 342, 6-[(6-{[5-(trifluoromethyl)pyridin-2-yl]oxy}quinolin-2-yl)carbonyl]-5,6,7,8-tetrahydropyrido[4,3-d]pyrimidin-4(3H)-one] | 3.38
O=C1CN(C(=O)c2ccc3cc(Oc4ccc(C(F)(F)F)cn4)ccc3n2)CCCN1 [Example 343, 4-[(6-{[5-(trifluoromethyl)pyridin-2-yl]oxy}quinolin-2-yl)carbonyl]-1,4-diazepan-2-one] | > 20
O=C(c1ccc2cc(Oc3ccc(C(F)(F)F)cn3)ccc2n1)N1CCC2(CC(O)C2)C1 (centres unmarked) [Example 345, (2-hydroxy-6-azaspiro[3.4]oct-6-yl)(6-{[5-(trifluoromethyl)pyridin-2-yl]oxy}quinolin-2-yl)methanone] | 9.15
O=C(NCCF)c1ccc2cc(Oc3ccc(C(F)(F)F)cn3)ccc2n1 [Example 346, N-(2-fluoroethyl)-6-{[5-(trifluoromethyl)pyridin-2-yl]oxy}quinoline-2-carboxamide] | 2.5
O=C(NCC(F)F)c1ccc2cc(Oc3ccc(C(F)(F)F)cn3)ccc2n1 [Example 347, N-(2,2-difluoroethyl)-6-{[5-(trifluoromethyl)pyridin-2-yl]oxy}quinoline-2-carboxamide] | 2.63
CS[C@H]1CN(C(=O)c2ccc3cc(Oc4ccc(C(F)(F)F)cn4)ccc3n2)C[C@@H]1O [Example 348, [(3S,4S)-3-hydroxy-4-(methylsulfanyl)pyrrolidin-1-yl](6-{[5-(trifluoromethyl)pyridin-2-yl]oxy}quinolin-2-yl)methanone] | 3.9
O=C(NC1CCCS(=O)(=O)C1)c1ccc2cc(Oc3ccc(C(F)(F)F)cn3)ccc2n1 (centres unmarked) [Example 349, N-(1,1-dioxidotetrahydro-2H-thiopyran-3-yl)-6-{[5-(trifluoromethyl)pyridin-2-yl]oxy}quinoline-2-carboxamide] | 3.25
O=C(c1ccc2cc(Oc3ccc(C(F)(F)F)cn3)ccc2n1)N1CCC2(CC1)CC(O)C2 [Example 354, (2-hydroxy-7-azaspiro[3.5]non-7-yl)(6-{[5-(trifluoromethyl)pyridin-2-yl]oxy}quinolin-2-yl)methanone] | 12.4
O=C(NCCC(F)(F)F)c1ccc2cc(Oc3ccc(C(F)(F)F)cn3)ccc2n1 [Example 355, 6-{[5-(trifluoromethyl)pyridin-2-yl]oxy}-N-(3,3,3-trifluoropropyl)quinoline-2-carboxamide] | 1.27
C[C@@H]1CN2C[C@@H](F)C[C@@H]2CN1C(=O)c1ccc2cc(Oc3ccc(C(F)(F)F)cn3)ccc2n1 [Example 357, [(3R,7S,8aR)-7-fluoro-3-methylhexahydropyrrolo[1,2-a]pyrazin-2(1H)-yl](6-{[5-(trifluoromethyl)pyridin-2-yl]oxy}quinolin-2-yl)methanone] | 2.72
C[C@@H]1CN2CC(F)(F)C[C@@H]2CN1C(=O)c1ccc2cc(Oc3ccc(C(F)(F)F)cn3)ccc2n1 [Example 358, [(3R,8aR)-7,7-difluoro-3-methylhexahydropyrrolo[1,2-a]pyrazin-2(1H)-yl](6-{[5-(trifluoromethyl)pyridin-2-yl]oxy}quinolin-2-yl)methanone] | 1.31
O=C(NCC1COCCN1Cc1ccccc1)c1ccc2cc(Oc3ccc(C(F)(F)F)cn3)ccc2n1 (centres unmarked) [Example 361, N-[(4-benzylmorpholin-3-yl)methyl]-6-{[5-(trifluoromethyl)pyridin-2-yl]oxy}quinoline-2-carboxamide] | 2.88
O=C(NCC1(O)CCOCC1)c1ccc2cc(Oc3ccc(C(F)(F)F)cn3)ccc2n1 [Example 362, N-[(4-hydroxytetrahydro-2H-pyran-4-yl)methyl]-6-{[5-(trifluoromethyl)pyridin-2-yl]oxy}quinoline-2-carboxamide] | 1
O=C(NC[C@@H]1CCCN1)c1ccc2cc(Oc3ccc(C(F)(F)F)cn3)ccc2n1 [Example 363, N-[(2S)-pyrrolidin-2-ylmethyl]-6-{[5-(trifluoromethyl)pyridin-2-yl]oxy}quinoline-2-carboxamide] | 1.19
CC1(C)CN(CCNC(=O)c2ccc3cc(Oc4ccc(C(F)(F)F)cn4)ccc3n2)C1 [Example 364, N-[2-(3,3-dimethylazetidin-1-yl)ethyl]-6-{[5-(trifluoromethyl)pyridin-2-yl]oxy}quinoline-2-carboxamide] | 0.37
O=C(NCCN1CCSCC1)c1ccc2cc(Oc3ccc(C(F)(F)F)cn3)ccc2n1 [Example 365, N-[2-(thiomorpholin-4-yl)ethyl]-6-{[5-(trifluoromethyl)pyridin-2-yl]oxy}quinoline-2-carboxamide] | 0.356
C=CCN(C)C(=O)c1ccc2cc(Oc3ccc(C(F)(F)F)cn3)ccc2n1 [Example 366, N-allyl-N-methyl-6-{[5-(trifluoromethyl)pyridin-2-yl]oxy}quinoline-2-carboxamide] | 3.18
N#CC1CN(C(=O)c2ccc3cc(Oc4ccc(C(F)(F)F)cn4)ccc3n2)C1 [Example 367, 1-[(6-{[5-(trifluoromethyl)pyridin-2-yl]oxy}quinolin-2-yl)carbonyl]azetidine-3-carbonitrile] | 2.53
O=C(NCC1(O)CC1)c1ccc2cc(Oc3ccc(C(F)(F)F)cn3)ccc2n1 [Example 369, N-[(1-hydroxycyclopropyl)methyl]-6-{[5-(trifluoromethyl)pyridin-2-yl]oxy}quinoline-2-carboxamide] | 15.2
O=C(NC1COCC1O)c1ccc2cc(Oc3ccc(C(F)(F)F)cn3)ccc2n1 (centres unmarked) [Example 371, N-(4-hydroxytetrahydrofuran-3-yl)-6-{[5-(trifluoromethyl)pyridin-2-yl]oxy}quinoline-2-carboxamide] | 1.46
N#Cc1cnc(Oc2ccc3nc(C(=O)N4CCNCC4)ccc3c2)cn1 [Example 372, 5-{[2-(piperazin-1-ylcarbonyl)quinolin-6-yl]oxy}pyrazine-2-carbonitrile] | > 20
O=C1CCN(C(=O)c2ccc3cc(Oc4ccc(C(F)(F)F)cn4)ccc3n2)CC1 [Example 375, 1-[(6-{[5-(trifluoromethyl)pyridin-2-yl]oxy}quinolin-2-yl)carbonyl]piperidin-4-one] | 13.2
O=C(c1ccc2cc(Oc3ccc(C(F)(F)F)cn3)ccc2n1)N(C1CCOCC1)C1CCOCC1 [Example 376, N,N-di(tetrahydro-2H-pyran-4-yl)-6-{[5-(trifluoromethyl)pyridin-2-yl]oxy}quinoline-2-carboxamide] | 3.06
O=C(c1ccc2cc(Oc3ccc(C(F)(F)F)cn3)ccc2n1)N1CCC(N2C[C@@H]3C[C@H]2CO3)CC1 [Example 377, {4-[(1S,4S)-2-oxa-5-azabicyclo[2.2.1]hept-5-yl]piperidin-1-yl}(6-{[5-(trifluoromethyl)pyridin-2-yl]oxy}quinolin-2-yl)methanone] | 3.32

same assay, conditions: read-out: FRET-Membrane Potential Nav1.7 IC50

Structure (SMILES) | IC50 [µM]
O=C(NCCN1CCCC1=O)c1ccc2cc(Oc3ccc(C(F)(F)F)cn3)ccc2n1 [Example 337, N-[2-(2-oxopyrrolidin-1-yl)ethyl]-6-{[5-(trifluoromethyl)pyridin-2-yl]oxy}quinoline-2-carboxamide] | 1.66
O=C(c1ccc2cc(Oc3ccc(C(F)(F)F)cn3)ccc2n1)N1CCC2(C1)OCCO2 [Example 352, 1,4-dioxa-7-azaspiro[4.4]non-7-yl(6-{[5-(trifluoromethyl)pyridin-2-yl]oxy}quinolin-2-yl)methanone] | 3.28
CON=C1CCN(C(=O)c2ccc3cc(Oc4ccc(C(F)(F)F)cn4)ccc3n2)CC1 [Example 353, [4-(methoxyimino)piperidin-1-yl](6-{[5-(trifluoromethyl)pyridin-2-yl]oxy}quinolin-2-yl)methanone] | 3.63
O=C(c1ccc2cc(Oc3ccc(C(F)(F)F)cn3)ccc2n1)N1CCN2C[C@@H](F)C[C@@H]2C1 [Example 356, [(7S,8aR)-7-fluorohexahydropyrrolo[1,2-a]pyrazin-2(1H)-yl](6-{[5-(trifluoromethyl)pyridin-2-yl]oxy}quinolin-2-yl)methanone] | 3.36
O=C(c1ccc2cc(Oc3ccc(C(F)(F)F)cn3)ccc2n1)N1CCN2C[C@@H](F)C[C@H]2C1 [Example 359, [(7S,8aS)-7-fluorohexahydropyrrolo[1,2-a]pyrazin-2(1H)-yl](6-{[5-(trifluoromethyl)pyridin-2-yl]oxy}quinolin-2-yl)methanone] | 4.71
O=C(c1ccc2cc(Oc3ccc(C(F)(F)F)cn3)ccc2n1)N1CCc2[nH]cnc2C1 [Example 360, 1,4,6,7-tetrahydro-5H-imidazo[4,5-c]pyridin-5-yl(6-{[5-(trifluoromethyl)pyridin-2-yl]oxy}quinolin-2-yl)methanone] | 1.09
O=C1CN(C(=O)c2ccc3cc(Oc4ccc(C(F)(F)F)cn4)ccc3n2)C1 [Example 370, 1-[(6-{[5-(trifluoromethyl)pyridin-2-yl]oxy}quinolin-2-yl)carbonyl]azetidin-3-one] | 3.39
